Results: US20090247461A1, “METHODS FOR THERAPEUTIC TREATMENT OF PAIN” (priority 2004, published 2009)

How the values were obtained:
[1] = test system: sciatic nerve ligation injury model; test: Heat test before and after administration of serotonin depletor, opioid antagonist, α- or β-adrenergic receptor blocker; assay type: in vivo, rat; settings: 3 weeks after ligation; for heat test with vs without / before vs after the depletor or blocker, control group: saline control group, 5,7-DHT intradural, naloxone 5 mg/kg, propranolol 10 mg/kg
Description: (§1) A sciatic nerve ligation injury model was prepared by modifying the neuropathic pain model published by Bennett et al. according to the method of Takeba (Pain, Vol. 33, pp. 87-107, 1988; Ehime Igaku (Ehime Medical Journal), Vol. 21, pp. 192-206, 2002). Under anesthesia by inhalation of 3% halothane and nitrous oxide, bilateral sciatic nerves of 8- to 12-week old female Wistar rats (Clea Japan, Inc., Osaka) were exposed and ligated at the central level of the femur along with a 27-gauge injection needle on the both sides by using a 4-0 polyglycolic acid suture at 4 sites at intervals of 1 mm for both sides. Then, the injection needle was removed to prepare a sciatic nerve ligation injury model. The ligation was attained to such a degree that the crural muscles slightly contractable by a stimulus given to the nerve, and care was taken not to cause injury in the axon by the ligation operation itself.
A solution of ginsenoside Rb1 (0.10 or 0.50 μg/μl) in a volume of 120 μl or an equivalent volume of saline was intravenously administered by one-shot to rats 24 hours after the sciatic nerve ligation. Then, ginsenoside Rb1 was intravenously administered continuously by using the continuous injection pump at a dose of 12 μg/day (hereinafter referred to as “S12”) or 60 μg/day (hereinafter referred to as “S60”) and a rate of 0.25 μL/hour for 4 weeks. Similarly, saline was intravenously administered continuously for 4 weeks as the control group.
(§2) To determine thermal paw withdrawal latency, a heat test was performed by using Plantar Test produced by Ugo Basile (Planter test 7370, Ugo Basile, Italy) according to the method of Hargreaves et al. (Pain, Vol. 32, pp. 77-88, 1988). Rats were placed on a plastic table maintained at a temperature of 23 to 24° C. and stimulated on the sole by using a thermal stimulator, and withdrawal latency (seconds) was measured. Occurrence of hyperalgesia was determined on the basis of shortening of the latency. The latency was measured 3 times for both the soles always at an interval of 5 minutes, and the average of the results of 6 times in total of measurements was used as a measured value.
To elucidate the action mechanism of Rb1, examination was performed by using depletors or blockers against substances reported to be involved in the descending pain signal transmission in the spinal cord, such as serotonin depletors, opioid receptor antagonists, α-adrenergic receptor blockers, and β-adrenergic receptor blockers (Biol. Pharm. Bull., 22-7, pp. 691-697, 1999). The heat test was performed 24 hours after the sciatic nerve ligation, and only rats showing an average latency for both feet of 90% or lower of the same before the operation were used. Animals in a number of 48 in total were arbitrarily divided into 8 groups (6 animals per group) to prepare Rb1-administered groups and a control group. A serotonin depletor, opioid receptor antagonist, α-adrenergic receptor blocker and β-adrenergic receptor blocker were each administered 3 weeks after the ligation, the heat test was performed before and after the administration, and the results were compared.
The serotonin depletor, 5,7-dihydroxytryptamine (5,7-DHT, ICN Biomedicals Inc., Ohio, U.S.A), was intradurally administered in an amount of […] 1 week before the measurement, and the heat test was performed 3 weeks after the ligation. Further, the heat test was performed 3 weeks after the ligation, on the following day, 5 mg/kg of the opioid receptor antagonist, naloxone (USP, Rockville, U.S.A), 10 mg/kg of the β-adrenergic receptor blocker, propranolol (SIGMA-ALDRICH Co., St. Louis, U.S.A), and 20 mg/kg of the α-adrenergic receptor blocker, phentolamine (SIGMA-ALDRICH Co., St. Louis, U.S.A), were each subcutaneously injected, and the heat test was performed again one hour later.

[2] = test system: mice; settings: cited from earlier work
[3] = test system: α2A-adrenergic receptor protein; test: Expression of α2A-adrenergic receptor protein in the spinal cord (immunoblot); assay type: in vivo, rat; settings: 60 μg/day i.v. continuously; 3 weeks after sciatic nerve ligation; compared with control group and sham operation group
Description: The spinal cord in the sciatic nerve innervation territory was removed from rats of the sham operation group (n=3) and rats 3 weeks after the sciatic nerve ligation (each n=3) which were intravenously administered with saline or 60 μg/day of ginsenoside Rb1 (S60) continuously from 24 hours after the sciatic nerve ligation, added to 10 times in volume of 50 mM phosphate buffer, 100 μM pAPMSF, 0.5% Triton-X and 0.5% SDS, and homogenized. The homogenate was added with a half volume of 6% SDS (+β-mercaptoethanol), incubated at 99° C. for 10 minutes and centrifuged at 15,000 rpm and 4° C. for 10 minutes, and the supernatant was used as a sample. Electrophoresis was performed on 10% SDS polyacrylamide, and then the protein was transferred on a polyvinylidine difluoride membrane (Millipore, Bedford, U.S.A.) by using a transblotting apparatus. Western blotting was performed by using anti-α2A-adrenoceptor antibody (ALEXIS BIOCHEMICALS, San Diego, USA) as the primary antibody and anti-rabbit IgG conjugated with alkaline phosphatase (SIGMA Chemicals, St. Louis, U.S.A) as the secondary antibody.

[4] = test system: α2A-adrenergic receptor mRNA; test: Measurement of α2A-adrenergic receptor mRNA in the spinal cord by RT-PCR; assay type: in vivo, rat; settings: 60 μg/day i.v. continuously; 3 weeks after sciatic nerve ligation; compared with control group and sham operation group
Description: The spinal cord in the sciatic nerve innervation territory was removed from rats of the sham operation group (n=7) and rats 3 weeks after the sciatic nerve ligation (each n=7) which were intravenously administered with saline or 60 μg/day of ginsenoside Rb1 (S60) continuously from 24 hours after the sciatic nerve ligation, and total RNA was extracted by using ISOGEN (Nippon Gene, Tokyo). The extracted total RNA was treated with DNase, and single-stranded cDNA was synthesized by using oligo-dT primers and Moloney murine leukemia virus reverse transcriptase (Life Technologies, Rockville, USA). The sequences of the primers used in this example were as follows.
PCR was performed under the following condition using Taq polymerase (Takara, Tokyo). For β-actin, after a reaction at 94° C. for 5 minutes, a cycle of heat denaturation at 94° C. for 1 minute, annealing at 55° C. for 1 minute and 30 seconds and elongation at 72° C. for 1 minute and 30 seconds was repeated 25 times. For α2A-adrenergic receptor, after a reaction at 94° C. for 2 minutes, a cycle of heat denaturation at 94° C. for 1 minute, annealing at 60° C. for 1 minute and elongation at 72° C. for 1 minute was repeated 30 times. As the internal control, β-actin was used.

[5] = test system: sciatic nerve ligation injury model; test: Heat test (thermal paw withdrawal latency) in sciatic nerve ligation injury model; assay type: in vivo, rat; settings: continuously administered i.v. for 4 weeks from 24 hours after sciatic nerve ligation (12 or 60 μg/day); 3 weeks after the ligation and thereafter; vs saline control
Description: as §1, with “The ligation was attained to such a degree that the crural muscles slightly contractable by a stimulus given to the nerve, and care was taken not to cause injury in the axon by the ligation operation itself.” left out
as §2

[6] = test system: transient forebrain ischemia; settings: continuously injected into the brain ventricle for 7 days after ischemia, cited from earlier work
[7] = test system: sciatic nerve ligation injury model; test: Pressure test (von Frey withdrawal threshold) in sciatic nerve ligation injury model; assay type: in vivo, rat; settings: continuously administered i.v. for 4 weeks from 24 hours after sciatic nerve ligation, vs saline control
Description: as §1, with “The ligation was attained to such a degree that the crural muscles slightly contractable by a stimulus given to the nerve, and care was taken not to cause injury in the axon by the ligation operation itself.” left out
To measure the pain threshold for a mechanical stimulus (von Frey withdrawal threshold), the von Frey hair test was performed in the same manner as in the Semmes-Weinstein test (Z. Gesamte Neurol. Psychiat., Vol. 79, pp. 324-333, 1922; Perceptual and Motor Skills, Vol. 14, pp. 351-354, 1962; The Journal of Hand Surgery, Vol. 3, pp. 211-216, 1978), which is clinically performed. […] In this procedure, the pain threshold (g) for the pressure stimuli to both the soles was measured twice for each time, and the average of the results obtained in measurements of 4 times in total was used as a measured value.

[8] = test system: transient forebrain ischemia; settings: oral (red ginseng powder) or intraperitoneal (crude ginseng saponin, ginsenoside Rb1) over one week before ischemia; cited from earlier work

For `NCCc1c[nH]c2c(O)cc(O)cc12` [5,7-DHT, 5,7-dihydroxytryptamine, reference compound], the “heat test with vs without / before vs after the depletor or blocker, control group” value (“heat test with vs without / before” for short) ([1]; phentolamine 20 mg/kg s.c.) was “no significant difference”.

For `CC(C)=CCC[C@](C)(O[C@@H]1O[C@H](CO[C@@H]2O[C@@H](CO)[C@H](O)[C@H]2O)[C@@H](O)[C@H](O)[C@H]1O)[C@H]1CC[C@]2(C)[C@@H]1[C@H](O)C[C@@H]1[C@@]3(C)CC[C@H](O[C@@H]4O[C@H](CO)[C@@H](O)[C@H](O)[C@H]4O[C@@H]4O[C@H](CO)[C@@H](O)[C@H](O)[C@H]4O)C(C)(C)[C@@H]3CC[C@]12C` [Rc, ginsenoside Rc], the analgesic effect [2] is given as “analgesic effect”.

In the case of `CC(C)=CCC[C@](C)(O[C@@H]1O[C@H](CO)[C@@H](O)[C@H](O)[C@H]1O)[C@H]1CC[C@]2(C)[C@@H]1[C@H](O)C[C@@H]1[C@@]3(C)CC[C@H](O[C@@H]4O[C@H](CO)[C@@H](O)[C@H](O)[C@H]4O[C@@H]4O[C@H](CO)[C@@H](O)[C@H](O)[C@H]4O)C(C)(C)[C@@H]3CC[C@]12C` [Rd, ginsenoside Rd], the analgesic effect [2] is listed as “analgesic effect”.

For `CC(C)=CCC[C@](C)(O[C@@H]1O[C@H](CO)[C@@H](O)[C@H](O)[C@H]1O)[C@H]1CC[C@]2(C)[C@@H]1[C@H](O)C[C@@H]1[C@@]3(C)CC[C@H](O)C(C)(C)[C@@H]3[C@@H](O[C@@H]3O[C@H](CO)[C@@H](O)[C@H](O)[C@H]3O[C@@H]3O[C@@H](C)[C@H](O)[C@@H](O)[C@H]3O)C[C@]12C` [Re, ginsenoside Re], the analgesic effect [2] is listed as “analgesic effect”.

For `CC(C)=CCC[C@](C)(O)[C@H]1CC[C@]2(C)[C@@H]1[C@H](O)C[C@@H]1[C@@]3(C)CC[C@H](O)C(C)(C)[C@@H]3[C@@H](O[C@@H]3O[C@H](CO)[C@@H](O)[C@H](O)[C@H]3O[C@@H]3O[C@H](CO)[C@@H](O)[C@H](O)[C@H]3O)C[C@]12C` [Rf, ginsenoside Rf], the analgesic effect [2] is given as “analgesic effect”.

In the case of `CC(C)=CCC[C@](C)(O[C@@H]1O[C@H](CO[C@@H]2O[C@H](CO)[C@@H](O)[C@H](O)[C@H]2O)[C@@H](O)[C@H](O)[C@H]1O)[C@H]1CC[C@]2(C)[C@@H]1[C@H](O)C[C@@H]1[C@@]3(C)CC[C@H](O[C@@H]4O[C@H](CO)[C@@H](O)[C@H](O)[C@H]4O[C@@H]4O[C@H](CO)[C@@H](O)[C@H](O)[C@H]4O)C(C)(C)[C@@H]3CC[C@]12C` [ginsenoside Rb1], the “expression level of the α2A-adrenergic receptor protein in the spinal cord” value [3] is reported as “significantly increased”, the “expression level of the α2A-adrenergic receptor mRNA in the spinal cord” value [4] is reported as “significantly increased” and the “hyperalgesia (heat test, withdrawal latency)” value [5] is reported as “hyperalgesia was significantly relieved”. For the same compound, the “heat test, animals administered vs not administered with 5,7-DHT, Rb1-administered groups” value ([1]; 5,7-DHT intradurally 60 μL g 1 week before measurement) was “no significant difference”, the “heat test before and after administration of naloxone, Rb1-administered groups” value ([1]; naloxone 5 mg/kg s.c., heat test again one hour later) was “no significant difference” and the “hyperalgesia suppressing effect after administration of phentolamine, Rb1-administered groups” value ([1]; phentolamine 20 mg/kg s.c., heat test again one hour later) was “significantly inhibited”. The “heat test before and after administration of propranolol, Rb1-administered groups” value ([1]; propranolol 10 mg/kg s.c., heat test again one hour later) was “no significant difference”, the “delayed nerve cell death in the hippocampus CA1 region” value [6] was “significantly reduced” and the “response latency in a passive avoidance learning experiment” value ([6]; dose-dependent, compared with a control) was “significantly prolonged”. For the same compound, the “allodynia (pressure test, von Frey pain threshold)” value [7] was “allodynia was not ameliorated”, the “allodynia (pressure test, von Frey pain threshold)” value ([7]; listed as Rb1) was “amelioration of allodynia was not observed” and the “delayed nerve cell death” value [8] was “inhibition of delayed nerve cell death”. The “learning and behavioral impairment” value [8] was “improvement of learning and behavioral impairment”.

In the case of `C=CCN1CC[C@]23c4c5ccc(O)c4O[C@H]2C(=O)CC[C@@]3(O)[C@H]1C5` [naloxone, reference compound], the “heat test with vs without / before” value ([1]; phentolamine 20 mg/kg s.c.) is reported as “no significant difference”.

For `Cc1ccc(N(CC2=NCCN2)c2cccc(O)c2)cc1` [phentolamine, reference compound], the “heat test with vs without / before” value ([1]; phentolamine 20 mg/kg s.c.) was “no significant difference”.

With `CC(C)NCC(O)COc1cccc2ccccc12` (stereo not drawn) [propranolol, reference compound] the “heat test with vs without / before” value ([1]; phentolamine 20 mg/kg s.c.) was “no significant difference”.
